This note sets out measurements from PubChem BioAssay (NCI).

Test in all cases: DTP human tumour cell line panel, 48 h
Assay [1] deals with SW-620 colon.
Assay [2] relates to OVCAR-5 ovarian.
Assay [3] has as its system NCI-H23 lung.
In assay [4] the test system is SF-268 CNS.
Assay [5] has as its system HCC-2998 colon.
Assay [6] deals with HCT-116 colon.
Assay [7] relates to M14 melanoma.
Assay [8] relates to COLO 205 colon.
The subject of assay [9] is HL-60(TB) leukemia.
The subject of assay [10] is MDA-MB-231 breast.

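Tested at 5 concentrations; 48 h exposure; 96-well plates; endpoints linearly interpolated, else capped at highest concentration. GI50 = concentration required for 50% inhibition of growth. TGI: total growth inhibition.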

The GI50 is the concentration at which growth is held to half of that of the control. In general, TGI refers to the concentration at which net growth stops. A higher TGI goes with lower sensitivity of the cells. Consider `Cc1cc2cc3ccc(N(C)C)cc3nc2cc1N`, for which the GI50 in assay [1] was 0.334 µM; in [2], 1.26 µM; in assay [3] it was 0.49 µM; in assay [4] it was 0.611 µM; in [5] it was 0.33 µM; in [6] it was 0.279 µM. Further, the GI50 in [7] was 0.682 µM; in [8], 0.389 µM; in assay [9], 0.805 µM; in assay [10] it was 1.12 µM. The TGI in assay [1] turned out to be 1.92 µM; in assay [2], 6.55 µM; in assay [3] it was 4.42 µM; in assay [4], 2.32 µM; in assay [5] it was 1.34 µM; in assay [6], 1.45 µM. For the same compound, the TGI in [7] was 2.14 µM; in assay [8], 2.01 µM; in assay [9] it was 5.09 µM; in [10], 2.88 µM.

As to `COc1cccc2c1-c1c(c3ccc([N+](=O)[O-])cc3c(=O)n1CCCN)C2=O`, the GI50 is 0.459 µM in [1]; 1.88 µM in assay [2]; 1.39 µM in [3]; 1.15 µM in assay [4]; 3.02 µM in assay [5]; 0.49 µM in assay [6]. Further, the GI50 was 1.54 µM in assay [7], 1.34 µM in assay [8], 1.62 µM in assay [9] and 1.68 µM in assay [10]. The TGI in [1] was 3.2 µM; in assay [2], 3.4 µM; in assay [3] it was 3.01 µM; in [4], 2.94 µM; in [5], 7 µM; in assay [6] it was 2.25 µM. In addition, the TGI was found to be 3 µM in [7], 3.07 µM in assay [8], 3.93 µM in [9] and 3.41 µM in assay [10].

As to `O=C1C2=C(c3ccccc31)C(c1ccccc1)N1C(=O)CSC1=N2` (stereo not given), the TGI in assay [1], in [2], in [3], in assay [4], in [5] and in assay [6] was above 100 µM each time. The TGI in assay [7] was above 96.6 µM; in [8], above 100 µM; in assay [9], 95.8 µM; in assay [10], above 100 µM.

Regarding `CCCCCCNC(=O)Oc1ccc(/C(=C(/C)Cc2ccc(OC)cc2)c2ccc(OCCCN(C)C)cc2)cc1`, the GI50 in assay [1] is 16.4 µM; in assay [2], 15.7 µM; in assay [3], 15.1 µM; in assay [4] it was 15 µM; in assay [5] it was 14.6 µM; in assay [6], 12.6 µM. Further, the GI50 in assay [7] is 12.3 µM; in assay [8] it was 14.6 µM; in assay [9] it was 10.5 µM; in [10], 15.3 µM. Besides, the TGI in assay [1] is 31.2 µM; in assay [2], 29.8 µM; in assay [3] it was 29.9 µM; in assay [4], 30.5 µM; in [5] it was 29.2 µM; in assay [6], 25.7 µM. Further, the TGI in assay [7] came to 26.1 µM; in assay [8] it was 29.7 µM; in assay [9], 24.9 µM; in assay [10] it was 29.9 µM.

With `CCOc1cc(Br)c(C(C)NC(=O)c2cccc(OC)c2)cc1OCC` (stereo not given), the GI50 in assay [1] is 4.6 µM; in assay [2], 25.4 µM; in assay [3], 29.1 µM; in [4], 22.9 µM; in assay [5], 33.7 µM; in assay [6], 4.39 µM. The GI50 in assay [7] was 4.38 µM; in assay [8], 8.28 µM; in [9], 3.8 µM; in [10], 8.59 µM. Besides, the TGI in [1], in [2], in [3], in assay [4], in assay [5] and in assay [6] was above 100 µM throughout. Besides, the TGI was above 100 µM in [7], 37.9 µM in assay [8], above 61.3 µM in [9] and above 100 µM in assay [10].

For the compound `O=C(CN1CCN(c2cc3c(cc2F)c(=O)c(C(=O)O)cn3C2CC2)CC1)Nc1nc(-c2ccc(Cl)cc2)cs1`, the GI50 was 3.48 µM in assay [1]; 8.66 µM in [2]; 3.1 µM in assay [3]; 4.19 µM in assay [4]; 5.17 µM in [5]; 3.37 µM in assay [6]. The GI50 is 4.54 µM in assay [7], 4.82 µM in assay [8], 2.71 µM in assay [9] and 5.09 µM in [10]. Further, the TGI is 16.7 µM in assay [1]; above 100 µM in assay [2]; above 100 µM in [3]; above 100 µM in assay [4]; above 100 µM in assay [5]; above 100 µM in [6]. The TGI was 28.6 µM in assay [7], above 100 µM in [8], 6.29 µM in assay [9] and 61 µM in assay [10].

Consider `Cc1cc(Nc2nc(-c3cccnc3)nc3ccccc23)n[nH]1`, for which the GI50 in assay [1] was 1.09 µM; in [2], 7.77 µM; in assay [3] it was 5.16 µM; in [4], 2.47 µM; in assay [5], 21.5 µM; in [6] it was 0.494 µM. The GI50 in [7] is 2.33 µM; in assay [8], 1.07 µM; in assay [9], 3.27 µM; in assay [10], 17.3 µM. Also, the TGI was above 100 µM in assay [1]; above 100 µM in assay [2]; above 100 µM in assay [3]; above 67.2 µM in assay [4]; above 100 µM in assay [5]; above 100 µM in [6]. Further, the TGI was above 100 µM in assay [7], 3.74 µM in assay [8], 49 µM in assay [9] and above 100 µM in [10].

With `COc1cc(OC)c2nccc(NCCCN(C)C)c2c1[N+](=O)[O-]`, the TGI in assay [1], in assay [2], in assay [3], in assay [4], in assay [5] and in assay [6] was above 100 µM each time. Moreover, the TGI in assay [7], in assay [8], in [9] and in assay [10] was above 100 µM throughout.
